Source: ChEMBL document CHEMBL4507268 (2021)

Experiments:
Conditions in all cases: Compound concentration 1.0 uM
[1] = target: T1, Serine/threonine-protein kinase 17B (Homo sapiens) (UniProt O94768)
T1 sequence (whole entry): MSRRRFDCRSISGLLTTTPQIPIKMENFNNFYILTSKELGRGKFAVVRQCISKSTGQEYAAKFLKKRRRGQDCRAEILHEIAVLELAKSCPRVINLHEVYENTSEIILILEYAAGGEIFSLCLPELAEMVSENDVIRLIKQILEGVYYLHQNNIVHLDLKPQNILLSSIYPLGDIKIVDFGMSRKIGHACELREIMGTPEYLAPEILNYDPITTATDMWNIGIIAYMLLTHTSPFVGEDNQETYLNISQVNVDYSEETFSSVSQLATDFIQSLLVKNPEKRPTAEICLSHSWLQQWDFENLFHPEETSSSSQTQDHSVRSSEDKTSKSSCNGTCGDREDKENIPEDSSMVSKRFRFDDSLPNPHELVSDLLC

[2] = target: Eukaryotic translation initiation factor 2-alpha kinase 3 (Homo sapiens) (UniProt Q9NZJ5)
Sequence of Eukaryotic translation initiation factor 2-alpha kinase 3 (Homo sapiens) (Q9NZJ5 whole entry): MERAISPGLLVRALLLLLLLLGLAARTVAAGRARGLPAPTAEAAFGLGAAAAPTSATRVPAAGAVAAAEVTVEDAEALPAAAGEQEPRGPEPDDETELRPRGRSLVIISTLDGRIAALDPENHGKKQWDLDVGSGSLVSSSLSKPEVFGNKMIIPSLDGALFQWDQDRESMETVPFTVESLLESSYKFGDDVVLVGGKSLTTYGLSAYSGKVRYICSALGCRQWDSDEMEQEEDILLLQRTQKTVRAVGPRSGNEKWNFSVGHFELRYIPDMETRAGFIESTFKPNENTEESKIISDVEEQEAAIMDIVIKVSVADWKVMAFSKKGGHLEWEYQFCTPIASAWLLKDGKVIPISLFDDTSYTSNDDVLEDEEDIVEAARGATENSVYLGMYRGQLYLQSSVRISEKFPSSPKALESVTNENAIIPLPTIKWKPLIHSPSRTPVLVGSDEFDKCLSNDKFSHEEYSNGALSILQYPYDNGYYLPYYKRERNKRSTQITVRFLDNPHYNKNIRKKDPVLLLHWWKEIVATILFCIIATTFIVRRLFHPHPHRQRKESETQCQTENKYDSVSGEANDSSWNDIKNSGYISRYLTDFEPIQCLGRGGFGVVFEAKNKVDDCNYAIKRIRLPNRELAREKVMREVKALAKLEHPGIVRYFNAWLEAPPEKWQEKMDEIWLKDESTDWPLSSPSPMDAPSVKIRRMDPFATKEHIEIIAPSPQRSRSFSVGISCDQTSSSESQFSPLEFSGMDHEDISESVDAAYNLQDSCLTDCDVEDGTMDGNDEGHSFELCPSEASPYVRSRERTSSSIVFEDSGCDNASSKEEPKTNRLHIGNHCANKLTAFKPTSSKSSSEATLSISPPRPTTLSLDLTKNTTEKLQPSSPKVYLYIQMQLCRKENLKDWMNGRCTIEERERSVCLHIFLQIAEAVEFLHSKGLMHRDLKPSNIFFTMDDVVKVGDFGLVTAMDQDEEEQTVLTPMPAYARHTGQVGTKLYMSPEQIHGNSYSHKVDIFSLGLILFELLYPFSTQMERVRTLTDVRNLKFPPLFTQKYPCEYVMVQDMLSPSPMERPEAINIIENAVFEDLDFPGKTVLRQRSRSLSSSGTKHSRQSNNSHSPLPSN

[3] = target: SRSF protein kinase 3 (Homo sapiens) (UniProt Q9UPE1)
[4] = target: Focal adhesion kinase 1 (Homo sapiens) (UniProt Q05397)
[5] = target: T2, Serine/threonine-protein kinase 4 (Homo sapiens) (UniProt Q13043)
T2 sequence (whole entry): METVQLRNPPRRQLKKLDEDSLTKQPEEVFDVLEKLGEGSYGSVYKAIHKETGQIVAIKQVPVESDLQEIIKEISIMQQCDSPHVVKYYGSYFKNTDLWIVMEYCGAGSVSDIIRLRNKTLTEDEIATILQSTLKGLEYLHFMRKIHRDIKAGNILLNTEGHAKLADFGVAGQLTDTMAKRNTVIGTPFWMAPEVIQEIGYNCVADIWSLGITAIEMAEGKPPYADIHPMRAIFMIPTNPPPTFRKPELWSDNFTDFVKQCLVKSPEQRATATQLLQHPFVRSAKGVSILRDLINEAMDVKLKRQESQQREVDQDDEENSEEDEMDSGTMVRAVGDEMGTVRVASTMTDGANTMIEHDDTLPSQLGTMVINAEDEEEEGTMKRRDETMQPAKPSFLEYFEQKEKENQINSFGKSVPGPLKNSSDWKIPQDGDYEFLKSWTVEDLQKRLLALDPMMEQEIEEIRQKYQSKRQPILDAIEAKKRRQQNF

[6] = target: Protein-tyrosine kinase 6 (Homo sapiens) (UniProt Q13882)
Sequence of Protein-tyrosine kinase 6 (Homo sapiens) (Q13882 whole entry, looked up): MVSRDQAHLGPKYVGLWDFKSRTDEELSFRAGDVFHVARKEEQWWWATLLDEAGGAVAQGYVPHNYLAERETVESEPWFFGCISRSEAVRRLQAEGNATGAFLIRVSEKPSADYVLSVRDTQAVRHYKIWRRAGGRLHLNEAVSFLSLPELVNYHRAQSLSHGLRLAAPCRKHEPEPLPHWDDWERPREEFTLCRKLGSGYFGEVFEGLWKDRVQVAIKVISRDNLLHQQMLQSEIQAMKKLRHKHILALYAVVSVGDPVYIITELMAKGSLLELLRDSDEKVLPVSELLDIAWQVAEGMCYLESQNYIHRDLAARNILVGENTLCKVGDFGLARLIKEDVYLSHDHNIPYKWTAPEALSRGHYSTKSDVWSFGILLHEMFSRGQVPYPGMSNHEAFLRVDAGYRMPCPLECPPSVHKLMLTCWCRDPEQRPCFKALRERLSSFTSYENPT

[7] = target: MAP kinase-activated protein kinase 2 (Homo sapiens) (UniProt P49137)
Sequence of MAP kinase-activated protein kinase 2 (Homo sapiens) (P49137 whole entry, looked up): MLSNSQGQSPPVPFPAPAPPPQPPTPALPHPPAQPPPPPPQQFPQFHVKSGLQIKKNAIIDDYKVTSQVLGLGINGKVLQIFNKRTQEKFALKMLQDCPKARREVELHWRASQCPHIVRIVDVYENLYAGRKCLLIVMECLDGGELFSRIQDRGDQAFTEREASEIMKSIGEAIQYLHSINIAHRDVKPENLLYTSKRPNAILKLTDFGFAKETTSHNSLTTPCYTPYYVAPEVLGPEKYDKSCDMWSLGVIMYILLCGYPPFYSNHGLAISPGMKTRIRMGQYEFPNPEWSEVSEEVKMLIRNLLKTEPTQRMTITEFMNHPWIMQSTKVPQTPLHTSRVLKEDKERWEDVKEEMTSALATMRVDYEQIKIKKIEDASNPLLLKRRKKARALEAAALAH

[8] = target: Serine/threonine-protein kinase 32A (Homo sapiens) (UniProt Q8WU08)
Sequence of Serine/threonine-protein kinase 32A (Homo sapiens) (Q8WU08 whole entry): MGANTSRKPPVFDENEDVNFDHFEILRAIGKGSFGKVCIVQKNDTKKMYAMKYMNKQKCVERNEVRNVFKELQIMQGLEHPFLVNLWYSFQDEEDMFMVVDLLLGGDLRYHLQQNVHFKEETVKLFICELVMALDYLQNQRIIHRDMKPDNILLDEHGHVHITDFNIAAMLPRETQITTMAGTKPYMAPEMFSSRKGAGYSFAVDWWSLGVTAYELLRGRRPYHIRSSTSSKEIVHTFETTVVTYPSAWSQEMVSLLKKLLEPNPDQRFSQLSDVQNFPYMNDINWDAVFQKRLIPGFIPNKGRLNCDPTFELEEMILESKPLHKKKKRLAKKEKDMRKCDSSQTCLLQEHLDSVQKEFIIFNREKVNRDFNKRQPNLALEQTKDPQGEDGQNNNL

[9] = target: CDK6/cyclin D3 (Homo sapiens) (UniProt P30281+Q00534)
[10] = target: Bone morphogenetic protein receptor type-1B (Homo sapiens) (UniProt O00238)
Sequence of Bone morphogenetic protein receptor type-1B (Homo sapiens) (O00238 whole entry): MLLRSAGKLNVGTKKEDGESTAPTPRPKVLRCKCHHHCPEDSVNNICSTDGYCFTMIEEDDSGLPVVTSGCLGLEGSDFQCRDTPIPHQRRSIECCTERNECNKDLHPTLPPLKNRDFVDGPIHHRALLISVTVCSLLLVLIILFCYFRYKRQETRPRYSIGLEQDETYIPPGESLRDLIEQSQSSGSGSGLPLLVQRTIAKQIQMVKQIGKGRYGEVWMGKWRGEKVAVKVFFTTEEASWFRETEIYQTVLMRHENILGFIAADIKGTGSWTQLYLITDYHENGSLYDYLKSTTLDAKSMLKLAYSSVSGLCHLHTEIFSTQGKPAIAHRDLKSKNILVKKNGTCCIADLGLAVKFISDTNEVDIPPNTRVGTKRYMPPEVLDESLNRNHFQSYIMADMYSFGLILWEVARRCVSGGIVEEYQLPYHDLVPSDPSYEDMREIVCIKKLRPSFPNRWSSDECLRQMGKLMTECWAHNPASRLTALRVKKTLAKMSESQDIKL

[11] = target: T3, Interleukin-1 receptor-associated kinase 4 (Homo sapiens) (UniProt Q9NWZ3)
T3 sequence (whole entry): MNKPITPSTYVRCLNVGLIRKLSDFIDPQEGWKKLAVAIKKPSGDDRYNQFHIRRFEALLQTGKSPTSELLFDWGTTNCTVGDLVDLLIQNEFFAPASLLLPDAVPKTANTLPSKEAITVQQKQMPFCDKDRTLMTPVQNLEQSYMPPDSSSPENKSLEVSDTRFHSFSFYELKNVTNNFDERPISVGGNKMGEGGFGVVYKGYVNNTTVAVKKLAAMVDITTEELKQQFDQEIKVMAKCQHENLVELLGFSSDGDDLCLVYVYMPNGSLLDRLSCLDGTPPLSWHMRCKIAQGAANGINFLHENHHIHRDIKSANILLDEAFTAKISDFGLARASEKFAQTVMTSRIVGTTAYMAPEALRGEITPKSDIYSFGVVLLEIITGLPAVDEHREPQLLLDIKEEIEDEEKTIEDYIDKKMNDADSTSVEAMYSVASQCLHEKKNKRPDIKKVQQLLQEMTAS

[12] = target: Ephrin type-A receptor 5 (Homo sapiens) (UniProt P54756)
Sequence of Ephrin type-A receptor 5 (Homo sapiens) (P54756 whole entry): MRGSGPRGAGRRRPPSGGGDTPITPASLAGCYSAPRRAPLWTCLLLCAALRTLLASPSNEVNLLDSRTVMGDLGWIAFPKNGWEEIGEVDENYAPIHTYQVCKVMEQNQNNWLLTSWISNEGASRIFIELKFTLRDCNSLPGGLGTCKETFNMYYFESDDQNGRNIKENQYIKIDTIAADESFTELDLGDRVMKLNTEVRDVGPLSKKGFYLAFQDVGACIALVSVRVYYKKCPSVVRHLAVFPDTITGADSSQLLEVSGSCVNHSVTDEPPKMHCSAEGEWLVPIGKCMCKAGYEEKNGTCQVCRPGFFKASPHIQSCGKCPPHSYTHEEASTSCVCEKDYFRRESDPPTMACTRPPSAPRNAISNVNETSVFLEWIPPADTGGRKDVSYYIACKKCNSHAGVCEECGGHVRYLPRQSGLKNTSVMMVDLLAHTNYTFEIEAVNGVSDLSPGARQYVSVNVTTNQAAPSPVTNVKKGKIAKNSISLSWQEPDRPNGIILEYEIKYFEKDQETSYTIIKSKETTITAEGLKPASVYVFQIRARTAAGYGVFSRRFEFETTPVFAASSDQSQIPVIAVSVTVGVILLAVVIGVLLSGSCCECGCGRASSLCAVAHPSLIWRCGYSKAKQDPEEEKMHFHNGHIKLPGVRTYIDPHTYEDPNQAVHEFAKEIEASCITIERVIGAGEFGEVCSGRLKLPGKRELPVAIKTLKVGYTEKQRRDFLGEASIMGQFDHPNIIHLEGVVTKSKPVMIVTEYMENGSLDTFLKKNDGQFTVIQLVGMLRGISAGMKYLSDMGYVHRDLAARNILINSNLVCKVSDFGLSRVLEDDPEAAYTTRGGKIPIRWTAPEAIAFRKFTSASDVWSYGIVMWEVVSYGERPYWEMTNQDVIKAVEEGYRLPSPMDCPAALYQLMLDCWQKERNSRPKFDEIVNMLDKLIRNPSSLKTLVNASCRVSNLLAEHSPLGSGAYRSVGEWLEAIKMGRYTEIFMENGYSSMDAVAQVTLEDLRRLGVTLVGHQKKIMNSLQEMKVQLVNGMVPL

[13] = target: Tau-tubulin kinase 1 (Homo sapiens) (UniProt Q5TCY1)
[14] = target: T4, Activin receptor type-1 (Homo sapiens) (UniProt Q04771)
T4 sequence (whole entry): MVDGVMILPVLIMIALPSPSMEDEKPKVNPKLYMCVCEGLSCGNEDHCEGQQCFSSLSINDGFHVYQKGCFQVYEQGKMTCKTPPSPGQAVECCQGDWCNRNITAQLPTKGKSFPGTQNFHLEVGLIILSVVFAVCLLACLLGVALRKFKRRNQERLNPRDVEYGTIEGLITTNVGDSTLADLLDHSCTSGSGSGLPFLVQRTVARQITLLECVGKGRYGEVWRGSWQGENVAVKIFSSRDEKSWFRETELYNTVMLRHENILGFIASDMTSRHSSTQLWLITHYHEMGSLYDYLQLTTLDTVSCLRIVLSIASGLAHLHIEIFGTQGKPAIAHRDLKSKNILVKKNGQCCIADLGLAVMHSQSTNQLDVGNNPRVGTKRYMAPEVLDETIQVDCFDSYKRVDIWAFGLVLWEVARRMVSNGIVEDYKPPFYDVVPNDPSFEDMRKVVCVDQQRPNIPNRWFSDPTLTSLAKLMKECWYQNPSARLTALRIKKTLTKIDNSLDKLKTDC

[15] = target: Mast/stem cell growth factor receptor Kit (Homo sapiens) (UniProt P10721)
Sequence of Mast/stem cell growth factor receptor Kit (Homo sapiens) (P10721 whole entry): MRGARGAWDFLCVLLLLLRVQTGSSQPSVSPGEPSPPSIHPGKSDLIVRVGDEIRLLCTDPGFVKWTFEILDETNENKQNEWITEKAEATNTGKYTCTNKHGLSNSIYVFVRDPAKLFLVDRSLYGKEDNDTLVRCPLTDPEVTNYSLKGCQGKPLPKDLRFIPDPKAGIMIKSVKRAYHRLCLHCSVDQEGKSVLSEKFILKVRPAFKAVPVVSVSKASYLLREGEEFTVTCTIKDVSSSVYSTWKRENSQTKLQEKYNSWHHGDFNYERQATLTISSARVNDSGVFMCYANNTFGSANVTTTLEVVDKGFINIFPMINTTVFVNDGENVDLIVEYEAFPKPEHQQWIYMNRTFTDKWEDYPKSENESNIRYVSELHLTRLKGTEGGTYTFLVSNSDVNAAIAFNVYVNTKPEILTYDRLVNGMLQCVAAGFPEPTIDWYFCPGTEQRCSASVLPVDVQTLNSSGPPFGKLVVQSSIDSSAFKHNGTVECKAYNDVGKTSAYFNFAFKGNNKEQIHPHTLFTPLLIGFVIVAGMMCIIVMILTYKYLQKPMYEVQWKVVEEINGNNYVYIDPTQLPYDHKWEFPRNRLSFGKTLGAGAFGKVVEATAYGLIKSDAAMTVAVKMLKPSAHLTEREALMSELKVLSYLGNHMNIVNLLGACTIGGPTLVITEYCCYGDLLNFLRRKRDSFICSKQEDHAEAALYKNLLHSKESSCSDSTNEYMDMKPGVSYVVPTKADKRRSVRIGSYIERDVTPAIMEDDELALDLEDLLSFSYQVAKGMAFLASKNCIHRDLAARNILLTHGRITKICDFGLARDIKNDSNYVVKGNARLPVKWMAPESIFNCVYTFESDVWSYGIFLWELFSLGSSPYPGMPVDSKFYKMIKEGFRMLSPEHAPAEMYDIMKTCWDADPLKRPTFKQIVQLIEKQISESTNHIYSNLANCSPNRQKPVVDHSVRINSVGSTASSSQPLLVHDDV

Measured: % residual kinase activity

CN1CCN(c2cnc3c(C4CCN(C(=O)c5ccc(OC(F)(F)F)cc5N)CC4)ncnc3c2)CC1 [BAY-885]
inactive: [1] 117% | [2] 100% | [3] 78% | [4] 101% | [5] 117% | [6] 108% | [7] 81% | [8] 100% | [9] 96% | [10] 102% | [11] 106% | [12] 57% | [13] 95% | [14] 98% | [15] 104%
